± gives the uncertainty stated by the source.
Assay: xn = mol fraction of the nth substance listed

CN(C)CCCN + O
viscosity (293.15 K, 100 kPa, x1 = 0.1): 8.105 ± 0.42 mPa·s | viscosity (293.15 K, 100 kPa, x1 = 0.1998): 13.62 ± 0.68 mPa·s | viscosity (293.15 K, 100 kPa, x1 = 0.2998): 11.49 ± 0.58 mPa·s | viscosity (293.15 K, 100 kPa, x1 = 0.4004): 7.437 ± 0.38 mPa·s | viscosity (293.15 K, 100 kPa, x1 = 0.5003): 4.661 ± 0.24 mPa·s | viscosity (293.15 K, 100 kPa, x1 = 0.5989): 3.168 ± 0.16 mPa·s | viscosity (293.15 K, 100 kPa, x1 = 0.6992): 2.225 ± 0.11 mPa·s | viscosity (293.15 K, 100 kPa, x1 = 0.8005): 1.691 ± 0.086 mPa·s | viscosity (293.15 K, 100 kPa, x1 = 0.8999): 1.327 ± 0.067 mPa·s | viscosity (303.15 K, 100 kPa, x1 = 0.1): 5.084 ± 0.26 mPa·s | viscosity (303.15 K, 100 kPa, x1 = 0.1998): 8.093 ± 0.41 mPa·s | viscosity (303.15 K, 100 kPa, x1 = 0.2998): 7.049 ± 0.35 mPa·s | viscosity (303.15 K, 100 kPa, x1 = 0.4004): 4.84 ± 0.24 mPa·s | viscosity (303.15 K, 100 kPa, x1 = 0.5003): 3.222 ± 0.16 mPa·s | viscosity (303.15 K, 100 kPa, x1 = 0.5989): 2.25 ± 0.11 mPa·s | viscosity (303.15 K, 100 kPa, x1 = 0.6992): 1.7 ± 0.086 mPa·s | viscosity (303.15 K, 100 kPa, x1 = 0.8005): 1.294 ± 0.066 mPa·s | viscosity (303.15 K, 100 kPa, x1 = 0.8999): 1.07 ± 0.054 mPa·s | viscosity (303.15 K, 101 kPa, x1 = 0.0488): 2.376 ± 0.017 mPa·s | viscosity (303.15 K, 101 kPa, x1 = 0.0996): 4.856 ± 2 mPa·s | viscosity (303.15 K, 101 kPa, x1 = 0.0999): 5.01 ± 0.036 mPa·s | viscosity (303.15 K, 101 kPa, x1 = 0.147): 7.175 ± 0.051 mPa·s | viscosity (303.15 K, 101 kPa, x1 = 0.1504): 7.078 mPa·s | viscosity (303.15 K, 101 kPa, x1 = 0.1743): 7.96 ± 0.058 mPa·s | viscosity (303.15 K, 101 kPa, x1 = 0.1994): 8.356 mPa·s | viscosity (303.15 K, 101 kPa, x1 = 0.1999): 8.348 ± 0.061 mPa·s | viscosity (303.15 K, 101 kPa, x1 = 0.2247): 8.378 ± 0.063 mPa·s | viscosity (303.15 K, 101 kPa, x1 = 0.2497): 8.194 ± 0.062 mPa·s | viscosity (303.15 K, 101 kPa, x1 = 0.2521): 8.394 mPa·s | viscosity (303.15 K, 101 kPa, x1 = 0.2744): 7.787 ± 0.061 mPa·s | viscosity (303.15 K, 101 kPa, x1 = 0.2995): 7.688 mPa·s | viscosity (303.15 K, 101 kPa, x1 = 0.2998): 7.275 ± 0.058 mPa·s | viscosity (303.15 K, 101 kPa, x1 = 0.3809): 6.001 mPa·s | viscosity (303.15 K, 101 kPa, x1 = 0.5): 3.919 ± 1.2 mPa·s | viscosity (303.15 K, 101 kPa, x1 = 0.5994): 2.525 ± 0.41 mPa·s | viscosity (303.15 K, 101 kPa, x1 = 0.6826): 1.939 ± 0.2 mPa·s | viscosity (303.15 K, 101 kPa, x1 = 0.7798): 1.492 ± 0.086 mPa·s | viscosity (303.15 K, 101 kPa, x1 = 0.8918): 1.163 ± 0.028 mPa·s | viscosity (308.15 K, 101 kPa, x1 = 0.0996): 3.946 ± 1.3 mPa·s | viscosity (308.15 K, 101 kPa, x1 = 0.1504): 5.637 ± 2.8 mPa·s | viscosity (308.15 K, 101 kPa, x1 = 0.1994): 6.623 mPa·s | viscosity (308.15 K, 101 kPa, x1 = 0.2521): 6.631 mPa·s | viscosity (308.15 K, 101 kPa, x1 = 0.2995): 6.133 mPa·s | viscosity (308.15 K, 101 kPa, x1 = 0.3809): 4.861 ± 2 mPa·s | viscosity (308.15 K, 101 kPa, x1 = 0.5): 3.282 ± 0.82 mPa·s | viscosity (308.15 K, 101 kPa, x1 = 0.5994): 2.116 ± 0.28 mPa·s | viscosity (308.15 K, 101 kPa, x1 = 0.6826): 1.701 ± 0.15 mPa·s | viscosity (308.15 K, 101 kPa, x1 = 0.7798): 1.329 ± 0.066 mPa·s | viscosity (308.15 K, 101 kPa, x1 = 0.8918): 1.042 ± 0.02 mPa·s | viscosity (313.15 K, 100 kPa, x1 = 0.1): 3.421 ± 0.18 mPa·s | viscosity (313.15 K, 100 kPa, x1 = 0.1998): 5.329 ± 0.27 mPa·s | viscosity (313.15 K, 100 kPa, x1 = 0.2998): 4.586 ± 0.23 mPa·s | viscosity (313.15 K, 100 kPa, x1 = 0.4004): 3.296 ± 0.17 mPa·s | viscosity (313.15 K, 100 kPa, x1 = 0.5003): 2.339 ± 0.12 mPa·s | viscosity (313.15 K, 100 kPa, x1 = 0.5989): 1.781 ± 0.09 mPa·s | viscosity (313.15 K, 100 kPa, x1 = 0.6992): 1.333 ± 0.068 mPa·s | viscosity (313.15 K, 100 kPa, x1 = 0.8005): 1.046 ± 0.053 mPa·s | viscosity (313.15 K, 100 kPa, x1 = 0.8999): 0.8872 ± 0.045 mPa·s | viscosity (313.15 K, 101 kPa, x1 = 0.0996): 3.263 ± 0.85 mPa·s | viscosity (313.15 K, 101 kPa, x1 = 0.1504): 4.578 ± 1.8 mPa·s | viscosity (313.15 K, 101 kPa, x1 = 0.1994): 5.341 ± 2.5 mPa·s | viscosity (313.15 K, 101 kPa, x1 = 0.2521): 5.351 ± 2.5 mPa·s | viscosity (313.15 K, 101 kPa, x1 = 0.2995): 4.967 ± 2.1 mPa·s | viscosity (313.15 K, 101 kPa, x1 = 0.3809): 4.005 ± 1.3 mPa·s | viscosity (313.15 K, 101 kPa, x1 = 0.5): 2.77 ± 0.57 mPa·s | viscosity (313.15 K, 101 kPa, x1 = 0.5994): 1.884 ± 0.21 mPa·s | viscosity (313.15 K, 101 kPa, x1 = 0.6826): 1.502 ± 0.11 mPa·s | viscosity (313.15 K, 101 kPa, x1 = 0.7798): 1.191 ± 0.05 mPa·s | viscosity (313.15 K, 101 kPa, x1 = 0.8918): 0.9578 ± 0.017 mPa·s | viscosity (318.15 K, 101 kPa, x1 = 0.0996): 2.739 ± 0.58 mPa·s | viscosity (318.15 K, 101 kPa, x1 = 0.1504): 3.791 ± 1.2 mPa·s | viscosity (318.15 K, 101 kPa, x1 = 0.1994): 4.372 ± 1.6 mPa·s | viscosity (318.15 K, 101 kPa, x1 = 0.2521): 4.383 ± 1.6 mPa·s | viscosity (318.15 K, 101 kPa, x1 = 0.2995): 4.089 ± 1.4 mPa·s | viscosity (318.15 K, 101 kPa, x1 = 0.3809): 3.354 ± 0.91 mPa·s | viscosity (318.15 K, 101 kPa, x1 = 0.5): 2.372 ± 0.4 mPa·s | viscosity (318.15 K, 101 kPa, x1 = 0.5994): 1.65 ± 0.16 mPa·s | viscosity (318.15 K, 101 kPa, x1 = 0.6826): 1.339 ± 0.086 mPa·s | viscosity (318.15 K, 101 kPa, x1 = 0.7798): 1.077 ± 0.04 mPa·s | viscosity (318.15 K, 101 kPa, x1 = 0.8918): 0.8777 ± 0.014 mPa·s | viscosity (323.15 K, 100 kPa, x1 = 0.1): 2.362 ± 0.12 mPa·s | viscosity (323.15 K, 100 kPa, x1 = 0.1998): 3.605 ± 0.18 mPa·s | viscosity (323.15 K, 100 kPa, x1 = 0.2998): 3.142 ± 0.16 mPa·s | viscosity (323.15 K, 100 kPa, x1 = 0.4004): 2.359 ± 0.12 mPa·s | viscosity (323.15 K, 100 kPa, x1 = 0.5003): 1.759 ± 0.089 mPa·s | viscosity (323.15 K, 100 kPa, x1 = 0.5989): 1.363 ± 0.069 mPa·s | viscosity (323.15 K, 100 kPa, x1 = 0.6992): 1.076 ± 0.054 mPa·s | viscosity (323.15 K, 100 kPa, x1 = 0.8005): 0.8667 ± 0.044 mPa·s | viscosity (323.15 K, 100 kPa, x1 = 0.8999): 0.75 ± 0.038 mPa·s | viscosity (323.15 K, 101 kPa, x1 = 0.0996): 2.323 ± 0.41 mPa·s | viscosity (323.15 K, 101 kPa, x1 = 0.1504): 3.16 ± 0.82 mPa·s | viscosity (323.15 K, 101 kPa, x1 = 0.1994): 3.624 ± 1.1 mPa·s | viscosity (323.15 K, 101 kPa, x1 = 0.2521): 3.636 ± 1.1 mPa·s | viscosity (323.15 K, 101 kPa, x1 = 0.2995): 3.402 ± 0.96 mPa·s | viscosity (323.15 K, 101 kPa, x1 = 0.3809): 2.831 ± 0.63 mPa·s | viscosity (323.15 K, 101 kPa, x1 = 0.5): 2.049 ± 0.29 mPa·s | viscosity (323.15 K, 101 kPa, x1 = 0.5994): 1.461 ± 0.12 mPa·s | viscosity (323.15 K, 101 kPa, x1 = 0.6826): 1.201 ± 0.067 mPa·s | viscosity (323.15 K, 101 kPa, x1 = 0.7798): 0.9811 ± 0.032 mPa·s | viscosity (323.15 K, 101 kPa, x1 = 0.8918): 0.8099 ± 0.012 mPa·s

— the CheMixHub viscosity set
